Measured values as given in publication PMC11887385 (Virology Journal, 2025).
Like-named read-outs stand apart in the source and are kept apart here.

Columns and labels:
Format in all cases: cell-based
HIV-1NL4-3 [1] = assay: Antiviral activity, TZM-bl reporter cells, F-Luc
Cell viability test = settings: human, TZM-bl cells, CC50 (1:5 dilution)
[2] = test system: HIV-1 7396 (41L/67N/69N/70R/215F); assay: Antiviral activity on resistant variant, TZM-bl F-Luc; settings: Human immunodeficiency virus 1, TZM-bl
[3] = test system: HIV-1 7407 (103N; 70R/115F); assay: as above; settings: Human immunodeficiency virus 1, TZM-bl
[4] = test system: HIV-1 12,231 (103N/179F/181C; 41L/215F); assay: as above; settings: Human immunodeficiency virus 1, TZM-bl
HIV-1 L100I = assay: Antiviral activity on single RT mutant, TZM-bl F-Luc; settings: Human immunodeficiency virus 1, TZM-bl
HIV-1 K101P = assay: as above; settings: Human immunodeficiency virus 1, TZM-bl
HIV-1 K103N = assay: as above; settings: Human immunodeficiency virus 1, TZM-bl
HIV-1 G190A = assay: as above; settings: Human immunodeficiency virus 1, TZM-bl
HIV-1 G190C = assay: as above; settings: Human immunodeficiency virus 1, TZM-bl
HIV-1 G190S = assay: as above; settings: Human immunodeficiency virus 1, TZM-bl
[5] = test system: HIV-1 7406 (190C; 41L/69S*/74 V/184 V/210W/215Y); assay: Antiviral activity on resistant variant, TZM-bl F-Luc; settings: Human immunodeficiency virus 1, TZM-bl
[6] = test system: HIV-1 12,227 (101P/103N; 41L/215Y); assay: as above; settings: Human immunodeficiency virus 1, TZM-bl
[7] = test system: HIV-1 12,241 (101E/138G/190S); assay: as above; settings: Human immunodeficiency virus 1, TZM-bl
[8] = test system: HIV-1 12,243 (100I/179D/230L; 41L/67G/74I); assay: as above; settings: Human immunodeficiency virus 1, TZM-bl
HIV-1NL4-3 [9] = assay: Time-of-addition; settings: TZM-bl, MOI 0.5, read at 48 h
[10] = Human immunodeficiency virus 1, NL43, TZM-bl, read-out: EC50 (1:5 dilution)
[11] = Human immunodeficiency virus 1, TZM-bl, 48 h

Row | Compound | EC50 (HIV-1NL4-3 [1]; [10]) [nM] | EC50 (HIV-1NL4-3 [1]; [11]) [nM] | CC50 (Cell viability test) [nM] | EC50 [2] [nM] | EC50 [3] [nM] | EC50 [4] [nM] | EC50 (HIV-1 L100I) [nM] | EC50 (HIV-1 K101P) [nM] | EC50 (HIV-1 K103N) [nM] | EC50 (HIV-1 G190A) [nM] | EC50 (HIV-1 G190C) [nM] | EC50 (HIV-1 G190S) [nM] | EC50 [5] [nM] | EC50 [6] [nM] | EC50 [7] [nM] | EC50 [8] [nM] | time postinfection of addition at which the inhibitory effect disappeared (HIV-1NL4-3 [9]) [h]
1 | O=C1Nc2ccc(Cl)cc2[C@@](C#CC2CC2)(C(F)(F)F)O1 [EFV, efavirenz] | 1 | 1 | 25900 | 1 | 350 ± 30 | 180 ± 220 | 20 | 20 | 40 ± 10 | 10 | 390 ± 90 | 120 ± 10 |  |  |  |  | 
2 | Cc1ccnc2c1NC(=O)c1cccnc1N2C1CC1 [NVP, nevirapine] | 80 ± 180 | 80 ± 20 | > 50000 | 350 ± 70 | > 50000 | > 50000 | 180 ± 40 | 8310 ± 600 | 4550 ± 270 | 15700 ± 2730 | 23800 ± 3310 | 32700 ± 4490 | > 50000 | > 50000 | > 50000 | 21400 ± 2210 | 
3 | Cc1cn([C@H]2C[C@H](N=[N+]=[N-])[C@@H](CO)O2)c(=O)[nH]c1=O [AZT, zidovudine] |  | 290 ± 60 |  | 3830 ± 1210 | > 50000 | 630 ± 190 | 70 ± 10 | 40 | 110 ± 10 | 110 ± 10 | 50 ± 10 | 80 ± 10 | 15100 ± 2160 | 1000 ± 130 | 80 ± 30 | 290 ± 10 | 2
4 | CC(C)(C)c1cc([N+](=O)[O-])cc(C=O)c1O [compound 3, 3-tert-butyl-2-hydroxy-5-nitrobenzaldehyde] |  | 1470 |  |  |  |  |  |  |  |  |  |  |  |  |  |  | 
5 | CCc1cc(=O)oc2cc(OC(CC)C(=O)c3ccccc3)ccc12 (stereo not shown) [compound 2, 4-ethyl-7-((1-oxo-1-phenylbutan-2-yl)oxy)-2H-chromen-2-one] |  | 4890 |  |  |  |  |  |  |  |  |  |  |  |  |  |  | 
6 | CC(C)[C@]12O[C@H]1[C@@H]1O[C@]13[C@]1(O[C@H]1C[C@H]1C4=C(CC[C@@]13C)C(=O)OC4)[C@@H]2O [TPL, triptolide] |  |  |  |  |  |  |  |  |  |  |  |  |  |  |  |  | 24
